Test results as given in PubChem BioAssay AID192 (DTP/NCI, 2004).
Where “and” joins values, the source holds several entries; their conditions need not be identical. Identical values can stand only once. Toxic doses and inconclusive results are not listed. How the source made its calls: active means survival T/C of 150% or more; inactive means T/C below 125% in these data. Square brackets hold non-standard residues; d marks the D form. Peptide text beside a SMILES is read from it. ξ: configuration not given here. ξV = CC(C)C(N)C(=O)O

Tested on: BDF1 mice, B16 melanoma ip, median survival T/C
Assay: NCI In Vivo Anticancer Drug Screen. Data for tumor model B16 Melanoma (intraperitoneal) in B6D2F1 (BDF1) mice
Details: endpoint: median survival time, higher = longer survival
Summary of the method: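 The ratio T/C compares compound-treated mice with vehicle-treated controls, using survival or tumor size as the endpoint in a transplantable tumor model.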

[1] = dose: 1.56 mg/kg/injection, schedule: Q01DX009 (ip), vehicle: Klucel (hydroxypropylcellulose) (HPC)
[2] = dose: 3.12 mg/kg/injection, schedule: Q01DX009 (ip), vehicle: Klucel (hydroxypropylcellulose) (HPC)
[3] = dose: 6.25 mg/kg/injection, schedule: Q01DX009 (ip), vehicle: Klucel (hydroxypropylcellulose) (HPC)
[4] = dose: 12.5 mg/kg/injection, schedule: Q01DX009 (ip), vehicle: Klucel (hydroxypropylcellulose) (HPC)
[5] = dose: 25.0 mg/kg/injection, schedule: Q01DX009 (ip), vehicle: Klucel (hydroxypropylcellulose) (HPC)
[6] = dose: 50.0 mg/kg/injection, schedule: Q01DX009 (ip), vehicle: Klucel (hydroxypropylcellulose) (HPC)
[7] = dose: 25.0 mg/kg/injection, schedule: Q01DX009 (ip), vehicle: saline
[8] = dose: 50.0 mg/kg/injection, schedule: Q01DX009 (ip), vehicle: saline
[9] = dose: 100.0 mg/kg/injection, schedule: Q01DX009 (ip), vehicle: saline
[10] = dose: 200.0 mg/kg/injection, schedule: Q01DX009 (ip), vehicle: saline
[11] = dose: 400.0 mg/kg/injection, schedule: Q01DX009 (ip), vehicle: saline
[12] = dose: 1.25 mg/kg/injection, schedule: Q01DX009 (ip), vehicle: saline with Tween-80
[13] = dose: 2.5 mg/kg/injection, schedule: Q01DX009 (ip), vehicle: saline with Tween-80
[14] = dose: 12.5 mg/kg/injection, schedule: Q01DX009 (ip), vehicle: saline
[15] = dose: 12.5 mg/kg/injection, schedule: Q01DX009 (ip), vehicle: water
[16] = dose: 50.0 mg/kg/injection, schedule: Q01DX009 (ip), vehicle: water
[17] = dose: 100.0 mg/kg/injection, schedule: Q04DX003 (ip), vehicle: saline
[18] = dose: 200.0 mg/kg/injection, schedule: Q04DX003 (ip), vehicle: saline
[19] = dose: 400.0 mg/kg/injection, schedule: Q04DX003 (ip), vehicle: saline
[20] = dose: 50.0 mg/kg/injection, schedule: Q01DX009 (ip), vehicle: saline with Tween-80
[21] = dose: 50.0 mg/kg/injection, schedule: Q04DX003 (ip), vehicle: saline with Tween-80
[22] = dose: 100.0 mg/kg/injection, schedule: Q04DX003 (ip), vehicle: saline with Tween-80
[23] = dose: 200.0 mg/kg/injection, schedule: Q04DX003 (ip), vehicle: saline with Tween-80

Measured: T/C

Nc1nc(N)c2cc(CNc3ccc(C(=O)NC(CC(=O)O)CC(=O)O)cc3)ccc2n1
inactive: dose: 0.04 mg/kg/injection, schedule: Q01DX009 (ip), vehicle: Klucel (hydroxypropylcellulose) (HPC) 109 % of control | dose: 0.09 mg/kg/injection, schedule: Q01DX009 (ip), vehicle: Klucel (hydroxypropylcellulose) (HPC) 95 % of control | dose: 0.19 mg/kg/injection, schedule: Q01DX009 (ip), vehicle: Klucel (hydroxypropylcellulose) (HPC) 104 % of control | dose: 0.39 mg/kg/injection, schedule: Q01DX009 (ip), vehicle: Klucel (hydroxypropylcellulose) (HPC) 95 % of control | dose: 0.78 mg/kg/injection, schedule: Q01DX009 (ip), vehicle: Klucel (hydroxypropylcellulose) (HPC) 95 % of control and 112 % of control | [1] 112 % of control | [2] 93 % of control | [3] 93 % of control | [4] 90 % of control and 101 % of control and 102 % of control | [5] 98 % of control and 124 % of control | [6] 99 % of control

CNCC(O)c1ccc(O)cc1 (stereo not given)
inactive: [7] 110 % of control | [8] 115 % of control and 121 % of control | [9] 110 % of control and 121 % of control | dose: 150.0 mg/kg/injection, schedule: Q01DX009 (ip), vehicle: saline 91 % of control | [10] 106 % of control and 123 % of control | dose: 300.0 mg/kg/injection, schedule: Q01DX009 (ip), vehicle: saline 94 % of control | [11] 110 % of control | dose: 600.0 mg/kg/injection, schedule: Q01DX009 (ip), vehicle: saline 89 % of control

[Cl][Pt+2][Cl].[NH-]c1ccccc1[NH-]
inactive: dose: 0.63 mg/kg/injection, schedule: Q01DX009 (ip), vehicle: saline with Tween-80 117 % of control | dose: 1.25 mg/kg/injection, schedule: Q01DX009 (ip), vehicle: Klucel (hydroxypropylcellulose) (HPC) 100 % of control and 123 % of control | [12] 117 % of control | dose: 2.5 mg/kg/injection, schedule: Q01DX009 (ip), vehicle: Klucel (hydroxypropylcellulose) (HPC) 92 % of control | [13] 122 % of control | dose: 10.0 mg/kg/injection, schedule: Q01DX009 (ip), vehicle: saline with Tween-80 92 % of control

C/C=C(\C)C(=O)N/N=C\c1cc(Cl)cc(Cl)c1O
inactive: dose: 25.0 mg/kg/injection, schedule: Q01DX009 (ip), vehicle: olive oil, sesame oil, peanut oil 88 % of control | dose: 100.0 mg/kg/injection, schedule: Q01DX009 (ip), vehicle: olive oil, sesame oil, peanut oil 89 % of control | dose: 200.0 mg/kg/injection, schedule: Q01DX009 (ip), vehicle: olive oil, sesame oil, peanut oil 86 % of control

O=S1(=O)CC(Cl)(Br)C1 (tested in a mixture with another compound)
inactive: [4] 105 % of control | [5] 108 % of control | [6] 108 % of control | dose: 100.0 mg/kg/injection, schedule: Q01DX009 (ip), vehicle: Klucel (hydroxypropylcellulose) (HPC) 93 % of control and 108 % of control

O=C1C(=O)c2ccccc2C(O)=C1CC=C(Cl)Cl
inactive: dose: 6.2 mg/kg/injection, schedule: Q01DX009 (ip), vehicle: water 93 % of control | [14] 100 % of control | [15] 93 % of control | [7] 102 % of control | dose: 25.0 mg/kg/injection, schedule: Q01DX009 (ip), vehicle: water 100 % of control | dose: 25.0 mg/kg/injection, schedule: Q01DX009 (oral), vehicle: water 103 % of control and 106 % of control | [8] 100 % of control | [16] 100 % of control | dose: 50.0 mg/kg/injection, schedule: Q01DX009 (oral), vehicle: saline 105 % of control | dose: 50.0 mg/kg/injection, schedule: Q01DX009 (oral), vehicle: water 106 % of control | dose: 75.0 mg/kg/injection, schedule: Q01DX009 (oral), vehicle: water 110 % of control | dose: 100.0 mg/kg/injection, schedule: Q01DX009 (oral), vehicle: saline 116 % of control | dose: 100.0 mg/kg/injection, schedule: Q01DX009 (oral), vehicle: water 106 % of control and 113 % of control | dose: 200.0 mg/kg/injection, schedule: Q01DX009 (oral), vehicle: water 106 % of control

CC(C)C(NC(=O)CN)C(=O)O (stereo not given) (H-Gly-[ξV]-OH)
inactive: [9] 102 % of control | [17] 102 % of control | [10] 100 % of control | [18] 97 % of control | [11] 90 % of control | [19] 95 % of control

CC(=O)C1=CC(=O)NC(=O)C1C(=O)CC(C)C (stereo not given)
inactive: [1] 104 % of control | [2] 89 % of control and 95 % of control | [3] 92 % of control

CCN1C(=O)CC2(CCN(C)CC2)C1=O
inactive: dose: 0.78 mg/kg/injection, schedule: Q01DX009 (ip), vehicle: saline 122 % of control | dose: 1.56 mg/kg/injection, schedule: Q01DX009 (ip), vehicle: saline 117 % of control | dose: 3.12 mg/kg/injection, schedule: Q01DX009 (ip), vehicle: saline 103 % of control | dose: 6.25 mg/kg/injection, schedule: Q01DX009 (ip), vehicle: saline 108 % of control | [14] 108 % of control | [7] 102 % of control | [8] 98 % of control | [9] 96 % of control

N#Cc1c(F)c(F)c(C#N)c(F)c1F
inactive: [12] 90 % of control | [13] 90 % of control

Brc1ccc(-c2csc(Nc3nc(-c4ccc(Br)cc4)cs3)n2)cc1
inactive: dose: 12.5 mg/kg/injection, schedule: Q01DX009 (ip), vehicle: saline with Tween-80 105 % of control | dose: 25.0 mg/kg/injection, schedule: Q01DX009 (ip), vehicle: saline with Tween-80 122 % of control | dose: 25.0 mg/kg/injection, schedule: Q04DX003 (ip), vehicle: saline with Tween-80 97 % of control | [20] 89 % of control and 107 % of control | [21] 100 % of control | [22] 86 % of control and 94 % of control | [23] 86 % of control

CC(C)C(NC(=O)CNC(=O)CN)C(=O)O (stereo not drawn) (H-Gly-Gly-[ξV]-OH)
inactive: [9] 95 % of control | [17] 100 % of control | [10] 97 % of control | [18] 97 % of control | [11] 95 % of control | [19] 95 % of control

CC(=O)OC12CC[N+]3(C)CCCCC3C1=Nc1ccccc12 (stereo not given)
inactive: [4] 109 % of control | [5] 104 % of control

CCOC(=O)C(=CN(C(C)C)C(C)C)C(=O)OCC
inactive: [20] 117 % of control | [21] 108 % of control | dose: 100.0 mg/kg/injection, schedule: Q01DX009 (ip), vehicle: saline with Tween-80 111 % of control | [22] 108 % of control | [23] 108 % of control

CC1OC(OCc2ccc3c(c2)C(=O)c2ccccc2C3=O)CC(N)C1O (stereo not given)
inactive: dose: 1.56 mg/kg/injection, schedule: Q01DX009 (ip), vehicle: water 102 % of control | dose: 3.13 mg/kg/injection, schedule: Q01DX009 (ip), vehicle: water 93 % of control | dose: 6.25 mg/kg/injection, schedule: Q01DX009 (ip), vehicle: water 115 % of control | [15] 115 % of control | [16] 94 % of control
